Measurements taken from US6153740A, “cDNA encoding nucleoside transporter” (University of Alberta, priority 1997, dated 2000).

How the values were obtained:
[1] = biological target: T1, hCNT1a (Homo sapiens, UniProt O00337); assay: cell-based
T1 sequence (O00337 with tags, fused parts or gaps E34G/INS140V): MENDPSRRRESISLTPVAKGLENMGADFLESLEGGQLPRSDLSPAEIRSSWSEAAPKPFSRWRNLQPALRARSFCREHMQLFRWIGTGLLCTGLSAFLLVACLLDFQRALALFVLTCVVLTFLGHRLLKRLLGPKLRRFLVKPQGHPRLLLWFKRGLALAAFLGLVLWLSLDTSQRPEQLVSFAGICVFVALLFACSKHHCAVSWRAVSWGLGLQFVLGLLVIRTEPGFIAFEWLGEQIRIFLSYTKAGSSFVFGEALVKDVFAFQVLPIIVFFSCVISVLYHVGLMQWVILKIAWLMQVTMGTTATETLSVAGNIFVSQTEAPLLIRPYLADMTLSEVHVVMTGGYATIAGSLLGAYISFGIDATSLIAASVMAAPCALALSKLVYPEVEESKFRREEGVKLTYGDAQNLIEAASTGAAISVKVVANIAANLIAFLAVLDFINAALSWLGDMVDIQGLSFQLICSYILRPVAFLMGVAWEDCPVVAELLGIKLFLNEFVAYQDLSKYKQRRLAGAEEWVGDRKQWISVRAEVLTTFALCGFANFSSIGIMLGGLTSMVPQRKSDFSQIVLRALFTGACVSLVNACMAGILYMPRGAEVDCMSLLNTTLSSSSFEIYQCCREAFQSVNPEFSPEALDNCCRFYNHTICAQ
Protocol: (§3) H2 O, water-injected oocytes. Fluxes were not corrected for the contribution of endogenous transport activity.
(§4) Defolliculated oocytes (Huang et al. 1993) were injected with either 10 nl of water containing 10 ng RNA transcript or 10 nl of water alone. Nucleoside uptake was measured after 3 d and was traced with the respective [^3 H] or [^14 C]nucleoside (Moravek Biochemicals)(5 μC 3H/ml, 1 μC 14C/ml). […] The transport buffer for adenosine influx experiments contained 1 μM deoxycoformycin to inhibit adenosine deaminase activity. Results are presented as means ±SEM for 10-12 individual oocytes. Kinetic constants were determined by non-linear regression analysis (ENZFITTER, Elsevier-Biosoft). Each experiment was performed at least twice on different batches of oocytes.

[2] = biological target: T2, CNT1 (Rattus norvegicus, UniProt Q62674); assay: uptake/influx of radiolabelled nucleosides in Xenopus oocytes injected with pQQH1 (rat CNT1) cRNA; type: cell-based; details: for mediated influx, rCNT1 (adenosine/deoxyadenosine comparison): separate experiment, inset FIG. 14A
T2 sequence (Q62674 1-648): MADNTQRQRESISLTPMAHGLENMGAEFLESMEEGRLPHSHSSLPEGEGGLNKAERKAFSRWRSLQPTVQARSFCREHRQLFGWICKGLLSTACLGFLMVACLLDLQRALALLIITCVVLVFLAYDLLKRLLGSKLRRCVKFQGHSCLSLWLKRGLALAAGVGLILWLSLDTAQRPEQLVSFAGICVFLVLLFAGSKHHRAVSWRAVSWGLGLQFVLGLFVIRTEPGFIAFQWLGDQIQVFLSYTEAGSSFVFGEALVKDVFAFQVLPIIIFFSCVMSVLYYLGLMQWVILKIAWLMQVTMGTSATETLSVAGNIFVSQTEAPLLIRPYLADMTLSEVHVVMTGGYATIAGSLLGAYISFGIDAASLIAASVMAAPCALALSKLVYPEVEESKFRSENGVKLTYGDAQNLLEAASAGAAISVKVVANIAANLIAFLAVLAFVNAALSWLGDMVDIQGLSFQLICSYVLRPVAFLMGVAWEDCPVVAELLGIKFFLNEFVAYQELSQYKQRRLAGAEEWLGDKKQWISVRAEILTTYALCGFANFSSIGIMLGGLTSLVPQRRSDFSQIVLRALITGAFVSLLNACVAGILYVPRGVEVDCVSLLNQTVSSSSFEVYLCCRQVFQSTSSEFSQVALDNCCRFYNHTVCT
Protocol: (§1) Oocytes were injected with water or RNA transcribed in vitro from the nucleoside transporter cDNA (pQQH1). […] For panels c and d, the permeant concentration was 10 μM and competing nonradioactive nucleosides were present at a concentration of 1 mM.
Oocytes injected with water or in vitro transcribed RNA from pQQH1 were incubated with radiolabeled permanent (10 μM) for 30 min (open columns) or 1 h (hatched columns) at 20° C. Each value represents the mean ±S. E. of 8-10 ooctyes.
(§2) Remaining template was removed by digestion with RQ1 DNase. Oocytes were treated with collagenase to remove follicular layers (Huang et al, 1993) and injected with 10 ng of pQQH1 cRNA or water. […] At the end of the incubation, extracellular label was removed by six rapid ice-cold washes in the appropriate transport buffer. Individual oocytes were dissolved in 5% SDS for quantitation of oocyte-associated ^3 H by liquid scintillation counting (LS 6000 IC, Beckman).

[3] = biological target: T1, hCNT1a; assay: influx of radiolabelled nucleosides in Xenopus oocytes injected with hCNT1a RNA transcript; details: for mediated influx, hCNT1a (adenosine/deoxyadenosine comparison): separate experiment, inset FIG. 14A
Protocol: Oocytes were injected with either water alone or water containing hCNT1a RNA transcript.
Oocytes were injected with either water alone (.tangle-solidup.) or water containing hCNT1a RNA transcript (.smallcircle.,.circle-solid.).
Adenosine, guanosine and AZT (10 μM) fluxes were compared in the same batch of oocytes injected either with water (open columns) or with RNA transcript for hCNT1a or rCNT1 (hatched and solid columns, respectively).
as §4

[4] = system: kidney; details: humans, mice (adenosine also rat); cited from earlier work
[5] = biological target: T1, hCNT1a; assay: inhibition of hCNT1a-mediated influx of [3H]uridine in Xenopus oocytes
Protocol: as §3, §4

[6] = biological target: T2, CNT1; details: Fang et al, 1996, Yao et al. unpublished; cited from earlier work
[7] = biological target: T2, CNT1; assay: inhibition of CNT1-mediated nucleoside (uridine, AZT, ddC) transport in Xenopus oocytes; type: cell-based; details: adenosine, thymidine, cytidine, uridine>>guanosine, inosine
Protocol: as §1, §2

[8] = biological target: T3, hCNT1b (Homo sapiens, UniProt O00337); assay: inhibition of hCNT1b-mediated influx of [3H]uridine in Xenopus oocytes; type: cell-based; details: uridine 10 μM, competitor 1 mM (FIG. 12B)
T3 sequence (O00337 2-649 V189I/N409S/D521N): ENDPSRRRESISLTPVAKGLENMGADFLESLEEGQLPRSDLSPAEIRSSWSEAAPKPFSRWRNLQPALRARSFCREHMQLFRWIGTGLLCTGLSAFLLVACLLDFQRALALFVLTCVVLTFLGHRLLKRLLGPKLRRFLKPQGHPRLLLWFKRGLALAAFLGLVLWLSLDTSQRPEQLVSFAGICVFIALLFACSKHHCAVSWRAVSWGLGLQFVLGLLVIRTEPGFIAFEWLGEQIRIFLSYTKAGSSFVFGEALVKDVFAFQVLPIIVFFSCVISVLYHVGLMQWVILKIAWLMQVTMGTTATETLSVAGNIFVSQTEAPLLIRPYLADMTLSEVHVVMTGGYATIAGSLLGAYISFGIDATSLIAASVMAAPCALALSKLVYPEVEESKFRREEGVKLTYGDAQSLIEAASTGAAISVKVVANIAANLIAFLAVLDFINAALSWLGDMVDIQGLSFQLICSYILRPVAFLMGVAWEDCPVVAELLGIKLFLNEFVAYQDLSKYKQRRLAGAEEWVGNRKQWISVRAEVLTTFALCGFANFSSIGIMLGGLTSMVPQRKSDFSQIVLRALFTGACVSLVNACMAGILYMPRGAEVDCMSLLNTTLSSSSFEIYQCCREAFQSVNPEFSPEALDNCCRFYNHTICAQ
Description: H2 O, water-injected oocytes.

[9] = biological target: T2, CNT1; details: Yao et al. unpublished; read-out: inhibition constant, recombinant rCNT1; cited from earlier work
[10] = system: isolated perfused rat kidneys; details: secreted at higher concentrations; Trimble and Coulson, 1984; cited from earlier work
[11] = system: ei transporters; details: Paterson et al, 1991; cited from earlier work
[12] = biological target: T2, CNT1; assay: inhibition of CNT1-mediated nucleoside (uridine, AZT, ddC) transport in Xenopus oocytes; type: cell-based; details: 1 μM
[13] = system: human erythrocyte es transporter; details: Young and Jarvis, 1983; Paterson et al; cited from earlier work

SMILES	Ki [1]	mediated influx, rCNT1 (adenosine/deoxyadenosine comparison) ([2]; 10 μM)	permeant quality, hCNT1 [3]	mediated influx, hCNT1a (adenosine/deoxyadenosine comparison) ([3]; 10 μM)	net renal handling [4]	Ki [5]	inhibition of uridine fluxes, hCNT1a ([5]; uridine 10 μM, competitor 1 mM (FIG. 12A), guanosine also in FIG. 13)	Vmax relative to uridine, recombinant rCNT1 [6]	affinity of transport by recombinant rCNT1 [6]	uridine:adenosine flux ratio, rCNT1 ([2]; 10 μM)	mediated flux, rCNT1 ([2]; 10 μM permeant (FIG. 14))	selective inhibition of uridine and thymidine fluxes (rCNT1) [7]	inhibition of uridine fluxes, hCNT1b [8]	uridine:adenosine flux ratio, hCNT1a ([3]; 10 μM)	mediated flux, hCNT1a ([3]; 10 μM permeant (FIG. 14))	Ki [9]	plasma concentration at which adenosine is reabsorbed [10]	sensitivity of ei systems to inhibition [11]	effect on CNT1 transport [12]	inhibition of equilibrative nucleoside transport in human erythrocytes, concentrations [13]
Nc1ncnc2c1ncn2[C@H]1C[C@H](O)[C@@H](CO)O1 [deoxyadenosine, 2'-deoxyadenosine]	46 ± 14 µM	0.11±0.02 pmol/oocyte.10 min^-1	poor hCNT1 permeants	0.14±0.02 pmol/oocyte.10 min^-1	net renal secretion															
Nc1ncnc2c1ncn2[C@@H]1O[C@H](CO)[C@@H](O)[C@H]1O [adenosine]		0.70±0.0 pmol/oocyte.10 min^-1		0.60±0.01 pmol/oocyte.10 min^-1	net renal reabsorption	50 ± 11 µM	inhibited	lower Vmax	same high affinity as uridine	110	0.51±0.05 pmol/oocyte.10 min^-1	selective inhibition	inhibited	75	0.49±0.03 pmol/oocyte.10 min^-1	29 µM	less than 50 μM			
O=[N+]([O-])c1ccc(CSc2ncnc3c2ncn3[C@@H]2O[C@H](CO)[C@@H](O)[C@H]2O)cc1 [NBMPR, 6-[(4-nitrobenzyl)thio]-9-p-D-ribofuranosylpurine]																		low (micromolar) sensitivity	unaffected	namomolar concentrations
